From US5614554A, “Reverse transcriptase inhibitors and antiviral agents” (Nippon Flour Mills Co., Ltd., priority 1992, dated 1997)
Entries after “also recorded” stand apart in the source; their conditions may differ. Like-named read-outs stand apart in the source and are kept apart here.

Experiments:
HTLV-IIIB = test: Inhibitory effect on HIV-induced cell damage in infected MT-4 cells (MTT method); format: cell-based; conditions: Human immunodeficiency virus 1, IIIB, MT4, 120 h, read-out: Efficiency
Experimental: (§1) In this test, there were used human T cell strain MT-4 cells (Gann monogr., Vol. 28, pp219-228 (1982)), which was tranformed with HTLV-1 which is an etiogenic virus of adult T cell leukemia, and HTLV-IIIB which is one of HIV strains. This test was performed in accordance with the method of Pauwels et al. (Pauwels et al., J. Virol. Methods, Vol. 20, pp309-21 (1988)).
(§2) Immediately after MT-4 cells were infected with HTLV-IIIB [MOI (multiplicity of infection =the number of inoculated virus/the number of cells): 0.01], sodium L-tyrosine sulfate and the HTLV-IIB-infected MT-4 cells were added to a microtiter plate having 96 wells at a variety of concentrations of sodium L-tyrosine sulfate and the concentration of 2.5×10^4 cells/well, respectively. These samples were cultivated at 37° C. for five days with carbon dioxide incubator. According to MTT method, the number of survival cells was then determined by measuring an absorbance to calculate an efficiency.

[1] = molecular target: T1, reverse transcriptase derived from HIV (Human immunodeficiency virus type 1 group M subtype B, UniProt P04585); test: Reverse transcriptase inhibitory effect, HIV enzyme; format: biochemical
T1 construct: the reverse transcriptase derived from HIV
Experimental: (§3) 20 μl of reaction solution was prepared so as to comprise 50 mM of Tris-hydrochloric acid buffer solution (pH 8.5), 40 mM of KCl, 6 mM of MgCl2, 1 mM of dithiothreitol, 50 μg/ml of poly(A). oligo (dT)12-18, [α^-32 P] deoxythymidine triphosphate, reverse transcriptase and sodium L-tyrosine sulfate.
(§4) After the reaction solution was incubated at 37° C. for 10 minutes, the reaction solution was deposited on DE 81 filter (available from Whatman). The filter was then washed thoroughly with 5% aqueous solution of Na2 HPO4 and subsequently with water, ethanol and diethyl ether. Radiation of the filter was examined by scintillation counter and then the concentration which inhibits 50% of reverse transcriptase activity (IC50) was calculated.
(§5) The reverse transcriptases used in this test were those derived from AMV (avian myeloblastosis virus) and HIV.

[2] = Influence on the proliferation of T cells (non-infected MT-4 cells); format: cell-based; conditions: human, read-out: Survival rate
Experimental: as §1, §2
As in Test Example 1, there was determined the influence of sodium L-tyrosine sulfate on the proliferation of HTLV-IIIB-non-infected MT-4 cells and the survival rate of the cells was calculated.

mice leukemia cell L1210 = test: Influence on the proliferation of mice leukemia cell L1210; format: cell-based; conditions: 250 μg/ml, cultured for four days, compared with compound-free control
Experimental: To the culture of mice leukemia cell L1210, sodium L-tyrosine sulfate was added at the concentration of 250 μg/ml and then the mixture was cultured for four days.

male mice of ICR = test: Acute toxicity on mice; format: in vivo; conditions: intraperitoneally, 500 mg/kg, male ICR mice at age of 4 weeks
Experimental: Sodium L-tyrosine sulfate was intraperitoneally injected to male mice of ICR at age of 4 weeks at the dose of 500 mg/kg to examine an acute toxicity.

[3] = molecular target: reverse transcriptase derived from AMV; test: Reverse transcriptase inhibitory effect, AMV enzyme; format: biochemical, AMV (avian myeloblastosis virus); conditions: poly(A).oligo(dT)12-18, 37° C., 10 minutes
Experimental: as §3, §4, §5

Solvent solubility = format: physicochemical; conditions: sulfate

| Structure (SMILES) | inhibition at 0.32 µg/mL (HTLV-IIIB) [%] | inhibition at 1.6 µg/mL (HTLV-IIIB) [%] | inhibition at 8 µg/mL (HTLV-IIIB) [%] | inhibition at 40 µg/mL (HTLV-IIIB) [%] | inhibition at 200 µg/mL (HTLV-IIIB) [%] | inhibition at 1000 µg/mL (HTLV-IIIB) [%] | IC50 [1] [µM] | viability at 120 h ([2]; 0.32 μg/ml) [%] | viability at 120 h ([2]; 1.6 μg/ml) [%] | viability at 120 h ([2]; 8 μg/ml) [%] | viability at 120 h ([2]; 40 μg/ml) [%] | viability at 120 h ([2]; 200 μg/ml) [%] | viability at 120 h ([2]; 1000 μg/ml) [%] | Inhibitory effect on the proliferation of L1210 (mice leukemia cell L1210) | Acute toxicity (male mice of ICR) | IC50 (concentration which inhibits 50% of reverse transcriptase activity) [3] [µg/mL] | Solvent solubility (Solvent solubility; product of Synthesis Example 1 before purification) | Solvent solubility (Solvent solubility; product of Synthesis Example 1 purified by Sephadex LH-20) |
| --- | --- | --- | --- | --- | --- | --- | --- | --- | --- | --- | --- | --- | --- | --- | --- | --- | --- | --- |
| N[C@@H](Cc1ccc(OS(=O)(=O)[O-])cc1)C(=O)O.[Na+] [sulfate] | -5 | 61 | 116 | 91 | 124 | 106 | 127 | 98 | 97 | 110 | 94 | 120 | 112 | – | – | – | – | – |
| N[C@@H](Cc1ccc(OS(=O)(=O)[O-])cc1)C(=O)O.[Na+] | – | – | – | – | – | – | – | – | – | – | – | – | – | hardly any inhibitory effects on the proliferation | not observed any remarkable toxicity | 230 | soluble in water, methanol and dimethyl sulfoxide; also recorded: insoluble in acetone, ethylacetate, hexane and chloroform | soluble in water, methanol and dimethyl sulfoxide; also recorded: insoluble in acetone, ethylacetate, hexane and chloroform |
